According to ChEMBL document CHEMBL2413012, “Inhibition of tumor-associated human carbonic anhydrase isozymes IX and XII by a new class of substituted-phenylacetamido aromatic sulfonamides” (Bioorg Med Chem, 2013):

target: Carbonic anhydrase 12 (Homo sapiens, UniProt O43570); assay: Inhibition of human recombinant carbonic anhydrase 12 preincubated for 10 mins by CO2 hydration stopped-flow assay
Sequence (O43570 whole entry): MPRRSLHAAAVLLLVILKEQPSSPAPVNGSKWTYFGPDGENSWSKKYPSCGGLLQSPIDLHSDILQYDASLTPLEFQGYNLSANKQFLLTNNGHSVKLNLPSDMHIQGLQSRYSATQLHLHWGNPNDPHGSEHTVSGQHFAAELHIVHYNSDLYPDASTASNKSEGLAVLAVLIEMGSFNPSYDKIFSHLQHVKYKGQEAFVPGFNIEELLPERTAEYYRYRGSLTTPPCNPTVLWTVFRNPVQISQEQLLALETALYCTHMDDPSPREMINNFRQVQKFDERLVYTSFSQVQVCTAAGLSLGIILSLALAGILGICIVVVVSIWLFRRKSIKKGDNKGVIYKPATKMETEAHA

| Compound | Ki [nM] |
| --- | --- |
| COc1ccc(CC(=O)NCCc2ccc(S(N)(=O)=O)cc2)cc1 | 0.43 |
| NS(=O)(=O)c1ccc(CCNC(=O)Cc2ccc(Cl)cc2)cc1 | 3.4 |

target: Carbonic anhydrase 9 (Homo sapiens, UniProt Q16790); assay: Inhibition of human recombinant carbonic anhydrase 9 preincubated for 10 mins by CO2 hydration stopped-flow assay

| Compound | Ki [nM] |
| --- | --- |
| COc1ccc(CC(=O)NCCc2ccc(S(N)(=O)=O)cc2)cc1 | 0.25 |
| NS(=O)(=O)c1ccc(CCNC(=O)Cc2ccc(Cl)cc2)cc1 | 1.2 |
| NS(=O)(=O)c1ccc(NC(=O)Cc2ccc(Cl)cc2)c(Br)c1 | 1.2 |
| NS(=O)(=O)c1ccc(NC(=O)Cc2ccccc2Br)c(Br)c1 | 0.52 |
| COc1ccc(CC(=O)Nc2ccc(S(N)(=O)=O)cc2Br)cc1 | 0.62 |
| NS(=O)(=O)c1ccc(CNC(=O)Cc2ccc(Cl)cc2)cc1 | 0.53 |
| NS(=O)(=O)c1ccc(CNC(=O)Cc2ccccc2Br)cc1 | 1 |
| COc1ccc(CC(=O)NCc2ccc(S(N)(=O)=O)cc2)cc1 | 0.45 |
| NS(=O)(=O)c1ccc(CCNC(=O)Cc2ccc(F)cc2)cc1 | 6.5 |
| NS(=O)(=O)c1ccc(CCNC(=O)Cc2ccccc2Br)cc1 | 0.57 |
| NS(=O)(=O)c1nnc(NC(=O)Cc2ccc(F)cc2)s1 | 2.1 |
| NS(=O)(=O)c1nnc(NC(=O)Cc2ccc(Cl)cc2)s1 | 1.3 |
| NS(=O)(=O)c1nnc(NC(=O)Cc2ccccc2Br)s1 | 0.61 |
| COc1ccc(CC(=O)Nc2nnc(S(N)(=O)=O)s2)cc1 | 0.31 |
| NS(=O)(=O)c1ccc(NC(=O)Cc2ccc(F)cc2)cc1 | 4.7 |
| NS(=O)(=O)c1ccc(NC(=O)Cc2ccc(Cl)cc2)cc1 | 72.5 |
| NS(=O)(=O)c1ccc(NC(=O)Cc2ccccc2Br)cc1 | 0.44 |
| COc1ccc(CC(=O)Nc2ccc(S(N)(=O)=O)cc2)cc1 | 0.32 |
| NS(=O)(=O)c1ccc(NC(=O)Cc2ccc(F)cc2)c(F)c1 | 7.2 |
| NS(=O)(=O)c1ccc(NC(=O)Cc2ccc(Cl)cc2)c(F)c1 | 7.8 |
| NS(=O)(=O)c1ccc(NC(=O)Cc2ccccc2Br)c(F)c1 | 1.6 |
| COc1ccc(CC(=O)Nc2ccc(S(N)(=O)=O)cc2F)cc1 | 1.8 |
| NS(=O)(=O)c1ccc(NC(=O)Cc2ccc(F)cc2)c(Cl)c1 | 10.1 |
| NS(=O)(=O)c1ccc(NC(=O)Cc2ccc(Cl)cc2)c(Cl)c1 | 6.3 |
| NS(=O)(=O)c1ccc(NC(=O)Cc2ccccc2Br)c(Cl)c1 | 0.74 |
| COc1ccc(CC(=O)Nc2ccc(S(N)(=O)=O)cc2Cl)cc1 | 0.41 |
| NS(=O)(=O)c1ccc(NC(=O)Cc2ccc(F)cc2)c(Br)c1 | 5 |
